Data set [1] relates to anti-17α-dihydroequilin serum. In words: Cross-reactivity of steroids with the anti-17α-dihydroequilin serum (radioimmunoassay). It counts as binding. The settings on record: selected rabbit anti-17α-dihydroequilin serum; [2,4-3H]-17α-dihydroequilin tracer. The protocol:
For the assay procedure, a standard was prepared from a stock solution of unlabeled steroid in absolute ethanol (100 ng/ml). A working standard solution containing 1 ng/ml of unlabeled steroid was prepared in sodium phosphate buffer (0.1 M, pH 7, 0.9% NaCl). The labeled [2,4-^3 H]-17α-dihydroequilin solution was prepared in the assay buffer at a concentration of 100 pg/ml. The antiserum was prepared in BSA-assay buffer (1 g BSA/1000 ml sodium phosphate buffer) at a concentraton of one-fifth of the final working dilutions.
The standard curve was established by preparing duplicate 3 ml centrifuge tubes containing 0, 50, 100, 250, 500, 1000, and 2000 pg of the steroid in a total volume of 0.5 ml assay buffer. The sample tubes were prepared in duplicate with hydrolyzed plasma extract (0.1 ml) and assay buffer (0.4 ml) in a total volume of 0.5 ml. To all standard and sample tubes antibody (0.25 ml) and labeled steroid (0.5 ml) were added. These were mixed and allowed to incubate at 4° C. for 18 hr. After addition of 0.2 ml gamma globulin dextran-coated charcoal (4 g charcoal, 0.4 g dextran, 0.8 g human gamma globulin, 200 ml deionized water), each tube was again mixed and placed in a cold room (4° C.) for 20 min. After centrifugation at 2,500 rev./min for 6 min, 0.5 ml of each supernatant was aliquoted into a counting vial. Then 15 ml of a scintillation medium [(4 g of 2,5-diphenyloxazole (PPO), 50 mg of 1,4-di-2-(5-phenyloxazoyl)benzene (dimethyl-POPOP), 100 ml of the aqueous solubilizer Biosolv BBS-3 (Biosolv is a trademark of Beachman Instruments, Irvine, Calif., U.S.A.) and 1000 ml toluene] was added to each vial. The samples were counted to a relative standard error of less than 2% in a Packard model 3320 liquid scintillation counter, Packard Instrument Co., Downers Grove, Ill., U.S.A., see C. Matthijssen and J. W. Goldzieher, Analyt. Biochem., 10, 401 (1965).
The titer was determined from the ability of antibody to bind a constant amount (50 pg) of the labeled steroid.

The nature of data set [2]: Oxidation of 17α-dihydroequilin to 17α-dihydroequilenin during formic acid hydrolysis (HPLC). The following applies: 120 min. It counts as physicochemical. The protocol:
Plasma (0.2 ml) and distilled water (0.7 ml) were added to a 16×125 mm tube and mixed. [6,7-^3 H]-Estrone-3-sulfate (0.1 ml, 2000 cpm, obtained from New England Nuclear Corp.), and [2,4-^3 H]-17α-dihydroequilin (0.1 ml, 2000 cpm) was then added to correct for recovery through the assay procedure, and the sample again mixed well and allowed to stand at room temperature for 30 min. Diethyl ether (2 ml) was added for extraction of the free compound. The extraction was repeated three times and the combined extracts washed with distilled water (1 ml) and the solvent removed by evaporation. The aqueous phase containing the conjugates was re-extracted with 2 ml of ethyl acetate-ethanol (4:1, v/v). The extraction was repeated two more times and the combined extracts were dried in a centrifuge tube (12 ml) under a stream of nitrogen. Absolute ethanol was added to those tubes which contained residual water and once again dried under nitrogen. The conjugate fraction was hydrolyzed with formic acid. […] The tube was tightly closed, vortexed, and sonified for 10 min before being placed in a 37° C. water bath for 2 hr. The hydrolyzed sample was taken to dryness, sodium phosphate buffer (1 ml) was added, and the solution was vortexed and allowed to stand at 20° C. for 10 min. The hydrolyzed free compound was extracted with diethyl ether (2 ml) three times and taken to dryness. […]

Data on 20 compounds can be found in patent US4379780A, “17 α-Dihydroequilin hapten and assay method” (American Home Products Corporation, priority 1980, dated 1983).

A value given as a limit tells only on which side of the number the result lay.

`C[C@]12CC[C@@H]3c4ccc(O)cc4CC[C@H]3[C@@H]1CC[C@@H]2O` [Estradiol-17β]: the “17α-Dihydroequilin Antibody (Percent Cross-Reactivity)” value in data set [1] is given as less than 0.10%.
As for `C[C@]12CC[C@H]3C(=CCc4cc(O)ccc43)[C@@H]1CC[C@H]2O` [17α-Dihydroequilin, 1,3,5(10),7-estratetraene-3,17α-diol], the “17α-dihydroequilin oxidized to 17α-dihydroequilenin during hydrolysis with formic acid” value in data set [2] (0.1% (w/v) ascorbic acid added before hydrolysis) was 2-3%; in data set [2] (without ascorbic acid), 13-16%. Also, in data set [1], the “17α-Dihydroequilin Antibody (Percent Cross-Reactivity)” value came out at 100.0%.
With `C[C@]12CC[C@@H]3c4ccc(O)cc4C=C[C@H]3[C@@H]1CCC2=O` [6-Dehydroestrone], the “17α-Dihydroequilin Antibody (Percent Cross-Reactivity)” value in data set [1] is listed as less than 0.10%.
With `C[C@]12CCc3c(ccc4cc(O)ccc34)[C@@H]1CC[C@@H]2O` [17β-Dihydroequilenin], the “17α-Dihydroequilin Antibody (Percent Cross-Reactivity)” value in data set [1] was less than 0.10%.
For the compound `CC(=O)[C@H]1CC[C@H]2[C@@H]3CCC4=CC(=O)CC[C@]4(C)[C@H]3CC[C@]12C` [Progesterone], the “17α-Dihydroequilin Antibody (Percent Cross-Reactivity)” value in data set [1] was less than 0.10%.
For the compound `C[C@]12CC[C@@H]3c4ccc(O)cc4CC[C@H]3[C@@H]1CC[C@H]2O` [Estradiol-17α], the “17α-Dihydroequilin Antibody (Percent Cross-Reactivity)” value in data set [1] is on record as less than 0.10%.
Consider `C[C@]12CCc3c(ccc4cc(O)ccc34)[C@@H]1CC[C@H]2O` [17α-Dihydroequilenin], for which the “17α-Dihydroequilin Antibody (Percent Cross-Reactivity)” value in data set [1] is on record as less than 0.10%.
On the same count and under the same terms, the value for `C[C@]12CC[C@H]3C(=CCc4cc(OS(=O)(=O)O)ccc43)[C@@H]1CC[C@H]2O` [17α-Dihydroequilin 3-sulfate] was 9.04%.
For `C[C@]12CCC3=C(CCc4cc(O)ccc43)[C@@H]1CCC2=O` [8-Dehydroestrone], the “17α-Dihydroequilin Antibody (Percent Cross-Reactivity)” value in data set [1] is given as less than 0.10%.
On to `C[C@]12CC[C@@H]3c4ccc(O)cc4C[C@@H](O)[C@]3(O)[C@@H]1CCC2=O` [Equilin-7α,8α-glycol], for which the “17α-Dihydroequilin Antibody (Percent Cross-Reactivity)” value in data set [1] is recorded as less than 0.10%.
For `C[C@]12CC[C@H](O)CC1=CC[C@@H]1[C@@H]2CC[C@]2(C)C(=O)CC[C@@H]12` [Dehydroepiandrosterone], the “17α-Dihydroequilin Antibody (Percent Cross-Reactivity)” value in data set [1] is given as less than 0.10%.
Consider `C[C@]12CC[C@@H]3c4ccc(OS(=O)(=O)O)cc4CC[C@H]3[C@@H]1CC[C@H]2O` [17α-Estradiol 3-sulfate], for which, in data set [1], the “17α-Dihydroequilin Antibody (Percent Cross-Reactivity)” value was less than 0.10%.
Consider `C[C@]12CC[C@H]3C(=CCc4cc(O)ccc43)[C@@H]1CC[C@@H]2O` [17β-Dihydroequilin], for which the “17α-Dihydroequilin Antibody (Percent Cross-Reactivity)” value in data set [1] is less than 0.10%.
As for `C[C@]12CCC(=O)C=C1CC[C@@H]1[C@@H]2[C@@H](O)C[C@@]2(C)[C@H]1CC[C@]2(O)C(=O)CO` [Cortisol], the “17α-Dihydroequilin Antibody (Percent Cross-Reactivity)” value in data set [1] was less than 0.10%.
For `C[C@]12CCc3c(ccc4cc(O)ccc34)[C@@H]1CCC2=O` [Equilenin], the “17α-Dihydroequilin Antibody (Percent Cross-Reactivity)” value in data set [1] turned out to be 0.40%.
`C[C@]12CC[C@H]3C(=CCc4cc(O)ccc43)[C@@H]1CCC2=O` [Equilin]: the “17α-Dihydroequilin Antibody (Percent Cross-Reactivity)” value in data set [1] was determined as 0.7%.
As for `C[C@]12CC[C@H]3[C@@H](CCC4=CC(=O)CC[C@@]43C)[C@@H]1CC[C@@H]2O` [Testosterone], the “17α-Dihydroequilin Antibody (Percent Cross-Reactivity)” value in data set [1] was less than 0.10%.
As to `C[C@]12CC[C@@H](O)C[C@@H]1CC[C@@H]1[C@@H]2CC[C@]2(C)C(=O)CC[C@@H]12` [Androsterone], in data set [1], the “17α-Dihydroequilin Antibody (Percent Cross-Reactivity)” value is less than 0.10%.
Regarding `C[C@]12CCC(=O)C=C1CC[C@@H]1[C@@H]2CC[C@]2(C)C(=O)CC[C@@H]12` [4-Androstene-3,17-dione], the “17α-Dihydroequilin Antibody (Percent Cross-Reactivity)” value in data set [1] is less than 0.10%.
Turning to `C[C@]12CC[C@@H]3c4ccc(O)cc4CC[C@H]3[C@@H]1CCC2=O` [Estrone], in data set [1], the “17α-Dihydroequilin Antibody (Percent Cross-Reactivity)” value is less than 0.10%.
